Assay results published in US11103525B2, “Idoxuridine and its analogs as neuroprotectans for the treatment of parkinsonism” (priority 2017, dated 2021).

Tests used:
[1] = test system: primary cortical neurons; assay: Cytoprotection against NMDA excitotoxicity (propidium iodide staining); format: cell-based, rat; conditions: 25 μM pretreatment 72 h or 48 h, NMDA 200 μM 30 min
Experimental: FIG. 7: Cytoprotection of Idoxuridine against excitotoxicity of NMDA. Mature primary neurons were pretreated with Idoxuridine (25 μM) or DMSO (ctrl cells) for 72 h or 48 h and subsequently exposed to NMDA (200 μM) for 30 min. Cell viability was assessed by propidium iodide (PI) staining. Both control and treated cells were incubated for 30 min with 6 μM PI which stains nuclei of dead cells. After extensive washing with Tyrode's buffer, samples were fixed and stained with DAPI to visualize all cell nuclei. PI positive cells were counted at several regions on coverslips and expressed as percentage of total cells visualized with DAPI stain. […] Data are expressed as means+/−SD and analyzed by one-way ANOVA with Dunnett's posthoc test. *p<0.001
Primary cortical neurons: Primary cortical neurons were prepared from E18 rat embryos. Cortices were isolated, cleared from meninges and dissociated after incubation in HBSS (Ca^2+ and Mg^2+-free) with 0.25% trypsin for 20 min at 37° C. […]
Mature primary neurons were pretreated with Idoxuridine (25 μM) or DMSO (ctrl cells) for 72 h or 48 h and subsequently exposed to NMDA (200 μM) for 30 min. Cell viability was assessed by propidium iodide (PI) staining. […] PI positive cells were counted at several regions on coverslips and expressed as percentage of total cells visualized with DAPI stain. […]

[2] = test system: WT cells; assay: Cytoprotection against H2O2, WT cells; format: cell-based, mouse; conditions: in-well H2O2 0.00025%
From the text: (§1) FIG. 10: Cytoprotection of Idoxuridine against […]. H2O2 reduces cell viability by increasing oxidative stress. This effect was counteracted by idoxuridine in GPR37-tGFP overexpressing cells (A) and WT (B) cells. […] In-well H2O2 concentration used was 0.00025%. […]

[3] = test system: GPR37-tGFP overexpressing cells; assay: Cytoprotection against H2O2, GPR37-tGFP overexpressing cells; format: cell-based, mouse; conditions: in-well H2O2 0.00025%, compared with WT cells
From the text: as §1

[4] = test system: GPR37-tGFP overexpressing cells; assay: Cytoprotection against MG132, GPR37-tGFP overexpressing cells; format: cell-based, mouse
Experimental: FIG. 8: Cytoprotection of Idoxuridine against MG132. MG132-induced proteasomal inhibition reduced cell viability. […] Data represented as mean+SD. Analysis performed via one-way ANOVA with Neuman-Keuls post-test for both Figures. *** indicates p<0.001. 2 mM 4-PBA used as a positive unspecific control. MG132 is a potent 26S proteasome inhibitor which increases protein accumulation, ROS leakage, induces cell cycle arrest and apoptosis.

SMILES: O=c1[nH]c(=O)n([C@H]2C[C@H](O)[C@@H](CO)O2)cc1I [Idoxuridine, 2′-deoxy-5-iodouridine]
- effect on excitotoxicity induced by NMDA (PI positive cells) [1]: significantly counteracted
- effect on H2O2-induced reduction of cell viability [2]: counteracted
- effect on H2O2-induced reduction of cell viability [3]: significantly stronger
- effect on MG132-induced reduction of cell viability [4]: potently counteracted
